The values below come from patent US10844049B2, “GLP-1R agonists and uses thereof” (QILU REGOR THERAPEUTICS INC., priority 2018, dated 2020).

For data set [1], the target named is T1, GLP1R (Homo sapiens, UniProt P43220). Put plainly: GLP-1R/β-Arrestin recruitment assay (PathHunter eXpress GLP1R CHO-K1 β-Arrestin GPCR Assay). It is filed as cell-based. Also on record: host or cells: PathHunter CHO-K1 GLP1R β-Arrestin cells. To be noted: averaged Bmax, percentage of control GLP-1 (7-37), highest concentration tested. From the text:
GLP-1R agonist activity with respect to β-arrestin recruitment can be determined with a cell-based functional assay using PathHuntcr eXpress GLP1R CHO-K1 β-Arrestin GPCR Assay kit (DiscovcrX Cat #93-0300E2CP0M).
The PathHunter β-Arrestin GPCR assay technology utilizes a β-galactosidase (β-gal) enzyme that is split into two fragments, the smaller Enzyme Donor (ED) and the larger Enzyme Acceptor (EA). These fragments can be fused to two proteins that may interact with each other, such as EA-β-Arrestin and ED-GLP-1R. The fusions can be stably expressed in a test cell line, such as the PathHunter CHO-K1 GLP1R β-Arrestin cells described below.
Independently, these fragment fusions have no β-gal activity; however, in solution or in a living cell, they can be brought together and complement to form an active β-gal enzyme due to the interaction between the fused proteins, thus generating a chemiluminescent signal in the presence of a suitable β-gal substrate.
In this experiment, PathHunter CHO-K1 GLP1R β-Arrestin cells from the assay kit were plated at a density of 1000 or 2000 cells/20 μl/well in a 384-well white/clear bottom plates (Greiner Cat #781098). Frozen cells were quickly thawed and 10 mL of cell plating medium (provided by the kit) was added to thawed cells. Cells were stored in a 37° C. incubator under 5% CO2 and kept for approximately 48 hours until ready to ran the assay.
Reference and test compounds were dissolved in 100% DMSO. 5× concentration of an agonist was prepared in serum free DMEM (Thermo Cat #11965). 5 μL of this solution was added to 20 μL cell medium in assay plate for a final top concentration of 10 μM. Plates were then incubated at 37° C. under 5% CO2 for 90 min.
Following 90 min incubation, detection reagents were made up by combining 1 part Galacton Star Substrate with 5 parts Emerald II™ Solution, and 19 parts of PathHunter Cell Assay Buffer, respectively. 12.5 μL detection reagent was added to each well. The plates were then incubated at room temperature in dark for 60 min. Plates were then read on Envision for 0.1 sec/well.
(§1) EC50 determinations were made from agonist dose-response curves analyzed with a curve fitting program using a 4-parameter logistic dose response equation.
Cells were plated at a density of 1000 or 2000 cells/20 μL/well. Frozen cells were quickly thawed and added to 10 mL of cell plating medium. Cells were stored in a 37° C. incubator under 5% CO2 and left for approximately 48 hours until ready to run the assay.
• 1) Reference agonist compound GLP1 (7-37): dissolved with DMSO to make 1 mM stock solutions, aliquoted and stored at −80° C. • 2) Test compounds (such as the compounds of the invention) came solubilized in 100% DMSO.
Prepare 10× concentration of an agonist in serum free DMEM, and add all solutions into the compound plate. 2.5 μL of this solution was added to 20 μL cell medium in assay plate for a final top concentration of 10 μM. Plates were incubated at 37° C. under 5% CO2 for 30 min. An additional 2.5 μL of Buffer was added to the entire plate for agonist mode and incubated at 37° C. for another 90 min.
Following 90 min incubation, detection reagents were made up as described. 12.5 μL was added to all wells. The plates were then incubated at room temperature in dark for 60 min. Plates were then read on Envision for 0.1 sec/well.
Data analysis: GraphPad Prism 6 was used for establishment of progression curve. EC50S or IC50s were determined by 4-parameter logistic dose response equation.

The target in data set [2] is T1, GLP1R. Put plainly: GLP1R cAMP HTRF assay, HEK293/GLP-1R/CRE/Luc (HEK293T cells). It is filed as cell-based. To be noted: read-out: EC50. Summed up:
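cAMP accumulation via HTRF after 30 min, 37 °C exposure of 1000 receptor-expressing cells/well to compound (0.5% DMSO final) in IBMX (500 μM)/0.1% BSA DPBS.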

Data set [3] concerns the target T1, GLP1R. Description: β-Arrestin-mediated GLP1R internalization assay (PathHunter engineered U2OS cells). It is filed as cell-based. Also on record: host or cells: PathHunter engineered U2OS cells. Conditions: averaged Bmax, percentage of control GLP-1 (7-37), highest concentration tested.
Description: A similar assay can also be used to assess the extent of signal attenuation due to GLP-1R internalization (the β-Arrestin Internalization Assay). In this assay, activated GLP1R Internalization cells were engineered to co-express an untagged GLP1R, Enzyme Acceptor (EA) tagged β-Arrestin, and a ProLink™ (PK) tag localized to the endosomes. Activation of the GLP1R induces β-Arrestin recruitment, which leads to internalization of the Receptor/Arrestin-EA complex in PK-tagged endosomes. This forces complementation of the two β-galactosidase enzyme fragments (EA and PK) to form a functional enzyme that hydrolyzes substrate to generate a chemiluminescent signal. These cells have been modified to prevent long term propagation and expansion using a proprietary compound that has no apparent effect on assay performance.
Specifically, PathHunter engineered U2OS cells from the assay kit (Cat #93-0724E3CP0L) were plated at a density of 2000 cells/20 μL/well in a 384-well white/clear bottom plates (Greiner Cat #781098). Frozen cells were quickly thawed and 10 mL of cell plating medium (provided by the kit) was added to thawed cells. Cells were stored in a 37° C. incubator and kept for approximately 48 hours until ready for the assay.
Reference and test compounds were dissolved in 100% DMSO. 5× concentration of an agonist was prepared in serum free DMEM (Thermo Cat #11965). 5 μL of this solution was added to 20 μL cell medium in assay plate for a final top concentration of 10 μM. Plates were incubated at 37° C. for 180 min.
Following 180 min incubation, detection reagents were made up by combining 1 part Galacton Star Substrate with 5 parts Emerald II™ Solution, and 19 parts of PathHunter Cell Assay Buffer, respectively. 12.5 μL detection reagent was added to each well. The plates were then incubated at room temperature for 60 min. Plates were then read on Envision for 0.1 sec/well.
as §1

A short description of data set [4]: Monkey oral pharmacokinetic (PK) study, non-naïve Cynomolgus male monkeys. Conditions: Dose 2. It is filed as in vivo. Here is the method:
Appropriate volumes of vehicles (e.g., 2% Tween 80 (v:v) and 0.5% MC (w:v) in saline or 0.5% MC (w:v) in water were then added into the mortar containing the ground compounds, and the mixture was then grinded with a pestle until a homogeneous paste was formed. Additional appropriate volumes of vehicles were added into the mortar containing each compound, and the mixture was grinded further with the pestle until a homogeneous suspension was obtained.
The rest of the vehicle was added to make up the final dosing volume of about 1 mg/mL or 2 mg/mL (i.e., final dosing volume of about 5 mL/kg), and the homogenous suspension was continuously stirred prior to and during the dosing.
Non-naïve Cynomolgus male monkeys (n=3/test article; sourced from Hainan Jingang Biotech Co., Ltd., Nayang Xmtan, Fucheng Town, Qiongshan District, Haikou City, Hainan Province, China); or non-naïve aged, obese, and diabetic male Macaca fascicularis monkeys (n=3/test article, Source: Kunming Biomed International Colony) were used in pre-clinical in vivo studies. All non-naïve Cynomolgus male monkeys were approximately 3 to 5 years old, weighed about 2.5-5 kg, and were within ±20% of the average body weight. All non-naïve aged, obese, and diabetic male Macaca fascicularis monkeys were approximately 12 to 20 years old, weighed about >8-12 kg.
All animals were fasted overnight before dosing, and the food were supplied approximately 4 hours post dose (with free access to water all the time).
Animals were restrained at designated time points for blood sampling. Approximately 500 μL of blood samples was taken via cephalic or saphenous vein into EDTA-K2 tubes. Blood samples were put on wet ice before centrifugation.
For oral administration (PO) of either Dose 1 or Dose 2: blood samples were collected at pre-dose, and at 15 min, 30 min, 1 hr, 2 hr, 4 hr, (6 hr for compounds 19 and 28 with cynomolgus monkeys only), 8 hr, 12 hr, and 24 hr post dose (i.e., 9 or 10 total time points for each compound at each dose).
The blood samples were centrifuged at approximately 2,000-4,000 rpm for about 10-15 minutes at 2-8′C, and each resulting plasma portion was then transferred into an individual tube.
LC-MS/MS methods were developed, and bioanalysis for the test articles in monkey plasma was performed according to the developed LC-MS/MS methods.
Undiluted plasma samples: An aliquot of 20-50 μL plasma sample was mixed with 200 μL of ACN or MeOH containing one of the internal standards (IS, e.g., Diclofenac or Terfenadine). The mixture was then vortexed for about 1-5 min, and centrifuged at about 4,000-5,800 rpm for about 10-15 min. An aliquot of 1 μL supernatant was used for LC-MS/MS analysis.
Pharmacokinetics parameters, including area under the curve (AUC0-t), maximum plasma concentration (Cmax), time to reach maximum plasma concentration (Tmax), oral bioavailability (F %), etc., were calculated using Phoenix software (Version 6.4) and non-compartment model.

Setting [5] is: male, cynomolgus monkey, plasma, oral.

T1 sequence (P43220 24-463): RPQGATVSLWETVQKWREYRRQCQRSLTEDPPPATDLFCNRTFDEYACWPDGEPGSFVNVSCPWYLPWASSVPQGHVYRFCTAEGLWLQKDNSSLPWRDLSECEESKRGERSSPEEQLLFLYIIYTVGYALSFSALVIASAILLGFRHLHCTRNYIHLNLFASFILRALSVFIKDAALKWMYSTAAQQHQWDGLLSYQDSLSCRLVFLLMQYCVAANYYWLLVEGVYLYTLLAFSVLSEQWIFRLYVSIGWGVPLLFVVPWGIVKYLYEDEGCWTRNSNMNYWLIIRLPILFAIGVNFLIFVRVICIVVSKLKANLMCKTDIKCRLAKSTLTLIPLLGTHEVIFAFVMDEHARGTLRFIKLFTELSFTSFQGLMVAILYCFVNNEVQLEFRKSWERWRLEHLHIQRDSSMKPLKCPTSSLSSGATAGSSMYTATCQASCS

`O=C(O)c1ccc2nc(CN3CCN(c4cccc(NCc5ccc(Cl)cc5F)n4)CC3)n(C[C@@H]3CCO3)c2c1` [Compound 1, (S)-2-((4-(6-(4-chloro-2-fluorobenzylamino)pyridin-2-yl)piperazin-1-yl)methyl)-1-(oxetan-2-ylmethyl)-1 h-benzo[d]imidazole-6-carboxylic acid]: the “Bmax (POC)” value in data set [1] was 2.80 POC. Further, in data set [2], the EC50 was at most 15 nM.

On to `O=C(O)c1ccc2nc(CN3CCN(c4ccnc(OCc5ccc(Cl)cc5F)n4)CC3)n(C[C@@H]3CCO3)c2c1` [Compound 9, (S)-2-((4-(2-((4-chloro-2-fluorobenzyl)oxy)pyrimidin-4-yl)piperazin-1-yl)methyl)-1-(oxetan-2-ylmethyl)-1H-benzo[d]imidazole-6-carboxylic acid], for which the “Bmax (POC)” value in data set [3] is reported as 27.03 POC. In data set [2], the EC50 is at most 15 nM.

For the molecule `N#Cc1ccc(COc2nccc(N3CCN(Cc4nc5ccc(C(=O)O)cc5n4C[C@@H]4CCO4)CC3)n2)c(F)c1` [Compound 10, (S)-2-((4-(2-((4-cyano-2-fluorobenzyl)oxy)pyrimidin-4-yl)piperazin-1-yl)methyl)-1-(oxetan-2-ylmethyl)-1H-benzo[d]imidazole-6-carboxylic acid], the “Bmax (POC)” value in data set [1] is 4.48 POC. Further, the EC50 in data set [2] was at most 150 nM.

As for `O=C(O)c1ccc2nc(CN3CCN(c4cncc(OCc5ccc(Cl)cc5F)n4)CC3)n(C[C@@H]3CCO3)c2c1` [Compound 11, (S)-2-((4-(6-(4-chloro-2-fluorobenzyloxy)pyrazin-2-yl)piperazin-1-yl)methyl)-1-(oxetan-2-ylmethyl)-1 h-benzo[d]imidazole-6-carboxylic acid], in data set [1], the “Bmax (POC)” value is given as 7.16 POC. Besides, the EC50 in data set [2] is at most 15 nM.

On to `N#Cc1ccc(COc2cncc(N3CCN(Cc4nc5ccc(C(=O)O)cc5n4C[C@@H]4CCO4)CC3)n2)c(F)c1` [Compound 12, (S)-2-((4-(6-(4-cyano-2-fluorobenzyloxy)pyrazin-2-yl)piperazin-1-yl)methyl)-1-(oxetan-2-ylmethyl)-1 h-benzo[d]imidazole-6-carboxylic acid], for which, in data set [1], the “Bmax (POC)” value turned out to be 9.66 POC. In data set [2], the concentration giving a half-maximal response (EC50) is at most 15 nM.

On to `O=C(O)c1ccc2nc(CN3CC=C(c4cccc(OCc5ccc(C(F)(F)F)nc5)n4)CC3)n(C[C@@H]3CCO3)c2c1` [Compound 45, (S)-1-(oxetan-2-ylmethyl)-2-((4-(6-((6-(trifluoromethyl)pyridin-3-yl)methoxy)pyridin-2-yl)-5,6-dihydropyridin-1(2H)-yl)methyl)-1 h-benzo[d]imidazole-6-carboxylic acid], for which the “Bmax (POC)” value in data set [3] is 19.1 POC. For the same molecule, the EC50 in data set [2] was at most 15 nM.

As for `O=C(O)c1ccc2nc(CN3CC=C(c4cccc(OCc5ccc(C(F)(F)F)cc5)n4)CC3)n(C[C@@H]3CCO3)c2c1` [Compound 46], the “Bmax (POC)” value in data set [3] was determined as 27.4 POC. Besides, in data set [2], the EC50 is at most 15 nM.

As to `CS(=O)(=O)NC(=O)c1ccc2nc(CN3CC=C(c4cccc(OCc5ccc(Cl)cc5F)n4)CC3)n(C[C@@H]3CCO3)c2c1` [Compound 47, (S)-2-((4-(6-(4-chloro-2-fluorobenzyloxy)pyridin-2-yl)-5,6-dihydropyridin-1(2H)-yl)methyl)-N-(methylsulfonyl)-1-(oxetan-2-ylmethyl)-1 h-benzo[d]imidazole-6-carboxamide], in data set [3], the “Bmax (POC)” value worked out at 22.8 POC. Besides, the EC50 in data set [2] is at most 15 nM.

As to `Fc1cc(Cl)ccc1COc1cccc(C2=CCN(Cc3nc4ccc(-c5nnn[nH]5)cc4n3C[C@@H]3CCO3)CC2)n1` [Compound 105, (S)-2-((4-(6-(4-chloro-2-fluorobenzyloxy)pyridin-2-yl)-5,6-dihydropyridin-1(2H)-yl)methyl)-1-(oxetan-2-ylmethyl)-6-(1H-tetrazol-5-yl)-1H-benzo[d]imidazole], in data set [3], the “Bmax (POC)” value is on record as 24.2 POC. Moreover, the EC50 in data set [2] is at most 15 nM.

For the molecule `N#Cc1ccc(COc2cccc(C3CCN(Cc4nc5ccc(C(=O)O)cc5n4C[C@@H]4CCO4)CC3)n2)c(F)c1` [Compound 418, reference compound], in data set [4] (setting [5]), the Tmax amounted to 1.7 h and the bioavailability amounted to 8.17%. In addition, in data set [4] (oral), the AUC0-24 h turned out to be 774 Arbitrary units and the Cmax worked out at 232 Arbitrary unit. In addition, the “drop in plasma concentration” value in data set [4] (over about 24 hours post oral dosing) is recorded as “about 10 fold”.
